According to patent publication US6211200A, “Metal complexes” (SmithKline Beecham Corporation, priority 1998, dated 2001):

B1: recombinant G-CSF: natural ligand for the G-CSF receptor (G-CSF or recombinant G-CSF) (protein, UniProt P09919 31-207, looked up)
Granulocyte …: TPLGPASSLPQSFLLKCLEQVRKIQGDGAALQEKLVSECATYKLCHPEELVLLGHSLGIPWAPLSSCPSQALQLAGCLSQLHSGLFLYQGLLQALEGISPELGPTLDTLQLDVADFATTIWQQMEELGMAPALQPTQGAMPAFASAFQRRAGGVLVASHLQSFLEVSYRVLRHLAQP

Assays:
[1] = biological target: T1, G-CSF receptor (Mus musculus, UniProt P40223); experiment: Luciferase reporter gene assay in G-CSF-responsive NFS60 cells; type: cell-based, murine; details: for activation in the luciferase assay: concentration range of 1 to 100 micromolar
T1 construct: they express endogenous G-CSF receptors; endogenous in cells; host or cells: NFS60 (murine myeloid cell line) containing a G-CSF-responsive element / luciferase reporter
T1 sequence (P40223 26-837): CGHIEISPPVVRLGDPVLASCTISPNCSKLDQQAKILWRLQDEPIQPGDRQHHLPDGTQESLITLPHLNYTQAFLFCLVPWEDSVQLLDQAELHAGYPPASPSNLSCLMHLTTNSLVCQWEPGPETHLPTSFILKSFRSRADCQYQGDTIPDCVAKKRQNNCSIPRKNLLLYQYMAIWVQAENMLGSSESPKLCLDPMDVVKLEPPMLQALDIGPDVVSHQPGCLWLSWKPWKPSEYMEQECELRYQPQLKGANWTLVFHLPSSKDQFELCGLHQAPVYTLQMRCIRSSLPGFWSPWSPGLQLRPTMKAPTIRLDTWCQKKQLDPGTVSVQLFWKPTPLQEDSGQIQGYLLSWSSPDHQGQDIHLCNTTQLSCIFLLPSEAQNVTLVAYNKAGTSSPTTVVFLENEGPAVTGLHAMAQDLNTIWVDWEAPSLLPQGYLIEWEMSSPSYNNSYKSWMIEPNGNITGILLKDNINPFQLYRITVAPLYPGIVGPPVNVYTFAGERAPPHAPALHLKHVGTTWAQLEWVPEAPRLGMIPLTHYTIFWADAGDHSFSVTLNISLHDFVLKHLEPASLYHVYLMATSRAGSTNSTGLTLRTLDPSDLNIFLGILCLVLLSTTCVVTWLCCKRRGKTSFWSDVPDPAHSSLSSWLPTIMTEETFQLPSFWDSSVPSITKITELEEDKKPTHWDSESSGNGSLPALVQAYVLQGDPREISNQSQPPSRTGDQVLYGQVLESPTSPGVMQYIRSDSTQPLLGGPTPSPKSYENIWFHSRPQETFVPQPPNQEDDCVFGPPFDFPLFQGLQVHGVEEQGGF
Method: Activity of compound 1a is below the threshold of 150% over background. The study was performed as a Luciferase assay configured on the G-CSF-responsive NFS60 cell line as described in Tian et al., Science 281, 257-259 (1998). The experiments shown in FIGS. 2-8 used the same NFS60 cell line.
Compounds of the present invention were tested for potency as agonist of the G-CSF receptor in a Luciferase reporter gene assay such as described in Tian et al., Science 281, 257-259 (1998). The NFS60 cells (Holmes, et al., Proc. Natl. Acad. Sci. USA 82:6687-6691 (1985)) were selected because they express endogenous G-CSF receptors closely matching the pattern of STAT (signal transducers and activators of transcription) activation observed in primary murine and human bone marrow cells.

[2] = biological target: T1, G-CSF receptor; experiment: Luciferase assay in NFS60 cells in the presence of EDTA; type: cell-based, murine; details: for G-CSF agonist activity in the presence of EDTA (metal ion mediation): FIGS. 3 and 4
Method: The media in this assay contained a small amount (1-5 uM) of zinc(II).
In order to determine the requisiteness of zinc chelation of small organic molecules to agonist activity at the G-CSF receptor, the above luciferase assay was performed in the presence of EDTA.

[3] = system: CFU-G; experiment: CFU-G assay; type: cell-based, murine; details: concentration range of 1 to 100 micromolar
Method: Compounds of this invention are also tested for activity in the following assays: CFU-G assay (an example of which is described in King A. G., Talmadge J., Badger A. M., Pelus L. M. Regulation of colony stimulating activity production from bone marrow stromal cells by the hematoregulatory peptide, HP-5. Exp. Hematol. 20:223-228, 1992) and in vivo evaluation of peripheral blood neutrophil and monocyte count in the mouse (an example of which is described in Pelus, L. M.; King, A. G.; Broxmeyer, H. E.; DeMarsh, P. L.; Petteway, S. R.; Bhatnagar, P. K., In vivo modulation of hematopoiesis by a novel hematoregulatory peptide Exp-Hematol. 1994 22(3):239-47). In order to confirm the requirement for zinc(II) chelation, the above CFU-G assay was also conducted in the presence of EDTA.

[4] = system: peripheral blood neutrophil and monocyte count; experiment: In vivo evaluation of peripheral blood neutrophil and monocyte count; details: mouse
Method: Compounds of this invention are also tested for activity in the following assays: CFU-G assay (an example of which is described in King […]., Badger A. M., Pelus L. M. Regulation of colony stimulating activity production from bone marrow stromal cells by the hematoregulatory peptide, HP-5. Exp. […] M.; King, […].; DeMarsh, […]., In vivo modulation of hematopoiesis by a novel hematoregulatory peptide Exp-Hematol. 1994 22(3):239-47).

[5] = biological target: G-CSF/Fc fusion protein; experiment: Isothermal titration microcalorimetry; type: binding; details: in the presence of zinc
Method: Zinc-mediated affinity of compounds from this invention for the G-CSF receptor was measured by isothermal titration microcalorimetry experiments. Titration microcalorimetry detects binding as heat originating from the intrinsic bond forming enthalpy change. […] In a separate experiment, the compounds were then assayed in the presence of zinc and a G-CSF/Fc fusion protein, which contained the extracellular domain of the G-CSF receptor presented in a dimeric form due to the Fc component.

| Molecule | activation in the luciferase assay [1] | G-CSF agonist activity in the presence of EDTA (metal ion mediation) [2] | activation in the murine CFU-G assay [3] | peripheral blood neutrophil and monocyte count [4] | affinity for G-CSF/Fc fusion protein [5] | also measured |
| --- | --- | --- | --- | --- | --- | --- |
| [Zn+2].c1ccc(C23NC(=Nc4nc5ccccc5[nH]4)NC2(c2ccccn2)NC(=Nc2nc4ccccc4[nH]2)N3)nc1.c1ccc(C23NC(=Nc4nc5ccccc5[nH]4)NC2(c2ccccn2)NC(=Nc2nc4ccccc4[nH]2)N3)nc1 (stereo not drawn) [Compound 1, Bis{2,5-bis[2-benzimidazolylimino]-3a,6a-bis(2-pyridyl)-1,2,3,3a,4,5,6,6a-octahydroimidazo[4,5-d]imidazole-N,N'}-zinc(II)] | above 150 % of control |  |  |  |  |  |
| c1ccc(C23NC(=Nc4nc5ccccc5[nH]4)NC2(c2ccccn2)NC(=Nc2nc4ccccc4[nH]2)N3)nc1 (stereo not drawn) [Compound 1a, 2,5-Bis[2-benzimidazolylimino]-3a,6a-bis(2-pyridyl)-1,2,3,3a,4,5,6,6a-octahydroimidazo[4,5-d]imidazole] | above 150 % of control | abrogated | above 150 % of control | elevation of peripheral blood neutrophil and monocyte count | high, submicromolar affinity | luciferase activity (G-CSF agonist activity) ([1]; NFS60 cells, absence of zinc, FIG. 1): < 150 % over background; luciferase activity ([1]; NFS60 cells, presence of 1 uM zinc (II), FIG. 2): about 350 % over control; G-CSF agonist efficacy ([1]; presence of 1 uM zinc(II), at 1 uM, FIG. 2): 350 % over background; effect of EDTA on luciferase activity ([2]; EDTA 1.2 millimolar, media contained 1-5 uM zinc(II), FIG. 3): antagonized |
| c1ccc(C23NC(=Nc4nc5ccccc5[nH]4)NC2(c2ccccc2)NC(=Nc2nc4ccccc4[nH]2)N3)cc1 (stereo not drawn) [Compound 2a, 2,5-Bis[2-benzimidazolylimino]-3a,6a-diphenyl-1,2,3,3a,4,5,6,6a-octahydroimidazo[4,5-d]imidazole] | above 150 % of control |  |  |  |  |  |
| Cc1ccc2nc(N=C3NC4(c5ccccn5)NC(=Nc5nc6ccccc6[nH]5)NC4(c4ccccn4)N3)[nH]c2c1.O=C(O)C(F)(F)F.O=C(O)C(F)(F)F (stereo not drawn) [Compound 3a, 5-(2-benzimidazolylimino)-2-[(5-methyl-2-benzimidazolyl)imino]-3a,6a-bis(2-pyridyl)-1,2,3,3a,4,5,6,6a-octahydroimidazo[4,5-d]imidazole bis(trifluoroacetate) salt] | above 150 % of control |  | above 150 % of control | elevation of peripheral blood neutrophil and monocyte count | high, submicromolar affinity |  |
| zinc (II) [reference compound] |  |  |  |  |  | effect of metal chlorides on the EDTA depleted activity of Compound 1a ([2]; 50 micromolar EDTA, metal at 0.5-10 micromolar, FIGS. 7 and 8): can overcome the inhibition |
| B1 |  | not mediated by metal ions |  |  |  | effect of EDTA on luciferase activity ([2]; EDTA 1.2 and 5 millimolar, FIG. 4): little effect |
